US20230390386A1, “REPLICATION-DEFECTIVE VACCINES AND USES THEREOF” (priority 2020, published 2023)

Assays:
ToledoLuc strain of HCMV = test: ToledoLuc growth curve in MRC-5 cells after CM treatment of virus (bioluminescence); format: cell-based, human cytomegalovirus
Description: ToledoLuc treatment with CM: The human cytomegalovirus (HCMV) strain ToledoLuc, which contains a luciferase expression cassette, was used in this study and well-known to those of skill in the art. Cells of the MRC-5 human diploid fibroblast line were seeded into 12-well plates. […] After 2 hours of treatment with CM, ToledoLuc viruses were washed 3 times with cDMEM and added to MRC-5 cells at an MOI of 0.05 in triplicate wells. The control includes the ToledoLuc treated with the PET vehicle in a similar way. The growth kinetics of ToledoLuc was determined by bioluminescence assay. The luciferase activity of ToledoLuc virus was measured every 24 hours using IVIS-50.
In the present example, the effect of CM treatment on the HCMV was first examined using the modified ToledoLuc strain of HCMV. ToledoLuc was treated with different concentrations of CM for two hours at room temperature, washed to remove unbound CM and then allowed to grow in the MRCS cells.

AD169-GFP = AD169-GFP fluorescence microscopy in ARPE-19 cells after CM treatment of virus; format: cell-based, human cytomegalovirus
Description: Fluorescence microscopy: The AD169-GFP viruses were incubated with 100 μM, 10 μM, 1.0 μM, and 0.1 μM of centanamycin as described above. After treatment, the AD169-GFP viruses were washed 3 times with the cDMEM and added to the ARPE-19 cells at an MOI of 0.05. The virus growth was analyzed every day by fluorescence microscopy. In a control experiment, the viruses were only treated with the PET vehicle.
To understand the pathology of CM treated virus, a GFP-expressing human cytomegalovirus, AD169-GFP, was used with microscopic imaging to visually assess the ability of treated viruses to infect cell.

MCMV-Luc [1] = test: MCMV-Luc growth curve in NIH 3T3 cells after CM treatment; format: cell-based, mouse cytomegalovirus; details: two hours at RT, MOI 0.1
Description: Previous studies in the current disclosure had been conducted in vitro. […] This study would identify a CM concentration required to attenuate the MCMV. For this assay, a luciferase-expressing version of MCMV, MCMV-Luc was used, and viral growth was measured as photon counts during intravital imaging using an in vivo imaging system (IVIS). The MCMV-Luc was treated with different concentrations of CM at RT for two hours and then added to NIH 3T3 cells established in 24 well plates in triplicate at a multiplicity of infection (MOI) of 0.1. The MCMV growth curve was determined by measuring the luciferase expression every 24 h using IVIS. […] This information was used to perform In vivo analysis of CM effect on the MCMV replication in the mice.

MCMV-Luc [2] = test: In vivo analysis of CM treated MCMV-Luc injected into mice (IVIS); details: 1×10^5 pfu intraperitoneally
Description: In vivo experiments: To check the efficacy of CM in the animal model, mouse cytomegalovirus expressing the luciferase gene (MCMVLuc) was used. […] The 25×10^6 PFU/ml of MCMVLuc viruses were treated with 10 μM, 1.0 μM, and 0.1 μM of CM for two hours at room temperature. The MCMVLuc viruses were washed with RPMI to remove CM and suspended in 1 ml of incomplete RPMI. Thereafter, 200 μl of the CM treated MCMVLuc was injected into five mice per group. The luciferase activity was measured every other day using bioluminescence assay by an in vivo imaging system (IVIS). Briefly, the mice were anesthetized using isoflurane and injected with the luciferin substrate. The injected mice were incubated at RT for five minutes and luciferase activity was determined using IVIS. In control experiments, the MCMVLuc viruses were treated with PET only and followed in a similar way as described above.
The MCMV-Luc virus was purified using a sucrose gradient and titrated. Following purification, 5×10^5 pfu of MCMV-Luc was treated with 10 μM, 1 μM and 0.1 μM of CM for 2 hours at RT. Thereafter, treated 1×10^5 pfu were injected intraperitoneally into five mice for each concentration. […] During this attenuated infection, the mouse immune system had sufficient time to recognize the virus as a foreign antigen and generate antibodies specific for the virus. Moreover, since the attenuated MCMV-Luc was whole viral particles, they contained all possible antigens relevant to priming a protective humeral response. As expected, the MCMV-Luc viral particles that were not treated with CM treatment replicated rapidly in the host mice, as observed by IVIS imaging in FIG. 4B.

E. coli = E. coli growth assay (OD) after CM treatment; format: cell-based; details: two hours at RT
Description: […] Replicate samples were performed in triplicate. The treated bacterial cells were then added to 96 well, round-bottom plates, which were then incubated at 37° C. in a shaking incubator. The bacterial OD was measured in Glomax Explorer (Promega) every hour to determine the bacterial growth.
In order to observe the effect of CM on the rate of bacterial growth, a series of studies were conducting observing cultures of treated E. coli (FIG. 7). […] Each treatment condition was repeated in triplicate. The treated E. coli were then added to 96 well round-bottom plates, and cultured at 37° C. in a shaking incubator. The bacterial OD was measured by a Glomax Explorer (Promega) every hour to determine the rate bacterial growth. […] Each data point on the graph in FIG. 7 represents the average of three separate measurements.

COc1cc2cc(C(=O)Nc3cc(N)c4ccccc4c3CCCl)[nH]c2c(OC)c1OC [CM, centanamycin]
ToledoLuc infection and replication (luciferase activity) (ToledoLuc strain of HCMV; virus treated with 0.01 μM-0.001 μM CM): allows the virus to grow and replicate in the infected cells | ToledoLuc infection and replication (luciferase activity) (ToledoLuc strain of HCMV; virus treated with 0.1 μM CM, 2 hours at RT): allow the virus to infect the cells but did not replicate | ToledoLuc infection and replication (luciferase activity) (ToledoLuc strain of HCMV; virus treated with 1 μM CM, 2 hours at RT, MRC5 cells, 9 days post-infection): did not grow and was replication-defective | ToledoLuc infection and replication (luciferase activity) (ToledoLuc strain of HCMV; virus treated with 10 μM CM, 2 hours at RT, MRC5 cells): neither replicate nor infects the cells | ToledoLuc infection and replication (luciferase activity) (ToledoLuc strain of HCMV; virus treated with 100 μM CM, 2 hours at RT, MRC5 cells): neither replicate nor infects the cells | AD169-GFP infection and replication (GFP fluorescence) (AD169-GFP; virus treated with 1 μM CM): detected in the infected cells but did not replicate | AD169-GFP infection and replication (GFP fluorescence) (AD169-GFP; virus treated with 10 μM CM): not able to infect the cells | AD169-GFP infection and replication (GFP fluorescence) (AD169-GFP; virus treated with 100 μM CM): not detected in the infected cells | MCMV-Luc infection and replication (luciferase expression) (MCMV-Luc [1]; virus treated with 0.01 μM CM): able to grow and replicate but slower than untreated | MCMV-Luc infection and replication (luciferase expression) (MCMV-Luc [1]; virus treated with 1.0 μM CM): allowed the virus to infect host cells but not replicate | MCMV-Luc infection and replication (luciferase expression) (MCMV-Luc [1]; virus treated with 10 μM CM): did not allow the MCMV-Luc to infect the cells | MCMV-Luc infection and replication in mice (IVIS) (MCMV-Luc [2]; virus treated with 0.1 μM CM): able to infect the mice but did not replicate further from the site of infection | MCMV-Luc infection and replication in mice (IVIS) (MCMV-Luc [2]; virus treated with 1 μM CM): able to infect the mice but did not replicate further from the site of infection | MCMV-Luc infection and replication in mice (IVIS) (MCMV-Luc [2]; virus treated with 10 μM CM): did not infect the mice | E. coli growth in culture (OD) (E. coli; 0.01 μM CM): able to grow slowly in the culture | E. coli growth in culture (OD) (E. coli; 0.1 μM CM): able to grow slowly in the culture | E. coli growth in culture (OD) (E. coli; 10 μM CM): did not grow | E. coli growth in culture (OD) (E. coli; 100 μM CM): did not grow in the culture
